The record followed here is paper PMC7367207 (2020).

Experiment [1] relates to crystallized SAM/SAH riboswitch (RNA1-26 + RNA2-9) (RNA, riboswitch, 5-bromocytidine at 4 of strand 1) GGUCACAACGGCUUCCUGGCGUGACC/AUUGGAGCA
Kind of experiment: X-ray crystallography. Conditions: crystal.

For experiment [2], the system named is U23C-modified SAM/SAH riboswitch (RNA, riboswitch) UACCUGUCACAACGGCUUCCCGGCGUGACGAGGUGACCUCAGUGGAGCAA
The experiment can be described thus: ITC. The following applies: 100 mM K+, 10 mM Mg2+; 40 mM HEPES pH 7.0, 298 K; 40 µM RNA, 1 mM ligand stock (legend; methods: 500 µM).

Experiment [3] concerns G46N7CH-modified SAM/SAH riboswitch (RNA, riboswitch, 7-deazaguanosine (N7 to CH) at 44 (paper position 46)) UACCUGUCACAACGGCUUCCUGGCGUGACGAGGUGACCUCAGUGGAGCAA
Kind of experiment: ITC. The following applies: 100 mM K+, 10 mM Mg2+; 40 mM HEPES pH 7.0, 298 K; 40 µM RNA, 1 mM ligand stock (legend; methods: 500 µM).

Experiment [4] has as its system SAM/SAH riboswitch G44U (RNA, riboswitch) UACCUGUCACAACGGCUUCCUGGCGUGACGAGGUGACCUCAUUGGAGCAA
Kind of experiment: ITC. Conditions: 100 mM K+, 10 mM Mg2+; 40 mM HEPES-K pH 7.0, 298 K.

The subject of experiment [5] is smFRET SAM/SAH riboswitch with 3' DNA extension on anchor DNA (DNA:RNA, riboswitch, 3' 18 nt of strand 1 and all of strand 2 are DNA) GAUACCUGUCACAACGGCUUCCUGGCGUGACGAGGUGACCUCAGUGGAGCAAACCGCTGCCGTCGCTCCG/CGGAGCGACGGCAGCGGT
The experiment can be described thus: single-molecule FRET, high-FRET fraction. Conditions: 100 mM K+, 2 mM Mg2+; 40 mM HEPES pH 7.5, surface-immobilised RNA, two-state isotherm.

For experiment [6], the system named is G44O2'H-modified SAM/SAH riboswitch (RNA, riboswitch, 2'-deoxyguanosine at 42 (paper position 44)) UACCUGUCACAACGGCUUCCUGGCGUGACGAGGUGACCUCAGUGGAGCAA
Kind of experiment: ITC. Conditions: 100 mM K+, 10 mM Mg2+; 40 mM HEPES pH 7.0, 298 K; 40 µM RNA, 1 mM ligand stock (legend; methods: 500 µM).

The subject of experiment [7] is U23isoC-modified SAM/SAH riboswitch (RNA, riboswitch, isocytidine at 21 (paper position 23, replaces U)) UACCUGUCACAACGGCUUCCUGGCGUGACGAGGUGACCUCAGUGGAGCAA
The experiment can be described thus: ITC. The following applies: 100 mM K+, 10 mM Mg2+; 40 mM HEPES pH 7.0, 298 K; 40 µM RNA, 1 mM ligand stock (legend; methods: 500 µM).

The subject of experiment [8] is SK209-50 SAM/SAH riboswitch (wt) (RNA, riboswitch) UACCUGUCACAACGGCUUCCUGGCGUGACGAGGUGACCUCAGUGGAGCAA
The experiment can be described thus: ITC. The following applies: 100 mM K+, 10 mM Mg2+; 40 mM HEPES-K pH 7.0, 298 K.

Structures are written as SMILES.

In the case of `CSC[C@H]1O[C@@H](n2cnc3c(N)ncnc32)[C@H](O)[C@@H]1O`, the binding result in experiment [1] (PDB title says AMP, ligand record MTA) is “yes”.
As to `C[S+](CC[C@H](N)C(=O)O)C[C@H]1O[C@@H](n2cnc3c(N)ncnc32)[C@H](O)[C@@H]1O` (stereo partly shown), the binding result is on record as “yes” in experiment [1] (also 6YMM in space group P312); “no” in experiment [2]; “no” in experiment [3]; “weak” in experiment [6]; “no” in experiment [7]. Further, the Kd in experiment [4] came out at 13 ± 3 µM; in experiment [5], 10 µM; in experiment [8] it was 19 ± 2 µM.
Turning to `NCCCSC[C@H]1O[C@@H](n2cnc3c(N)ncnc32)[C@H](O)[C@@H]1O`, in experiment [1], the binding result is “yes”. The same compound returned a dissociation constant Kd in experiment [8] of 12 ± 1 µM.
On to `Nc1ncnc2c1ncn2[C@@H]1O[C@H](CO)[C@@H](O)[C@H]1O`, for which the binding entry in experiment [1] is on record as “yes”.
For `Nc1ncnc2c1ncn2[C@@H]1O[C@H](COP(=O)(O)O)[C@@H](O)[C@H]1O`, the binding entry in experiment [1] is recorded as “yes”.
For the compound `Nc1ncnc2c1ncn2[C@@H]1O[C@H](CSCC[C@H](N)C(=O)O)[C@@H](O)[C@H]1O`, the binding entry in experiment [1] (1.7 Å, second SAH only at lattice contact) is listed as “yes”. Besides, the Kd stood at 6 µM in experiment [5] and 20 ± 2 µM in experiment [8].
